# Legend:
# Mus musculus [1] = species on record: Mus musculus; experiment: […] effect on UVB-induced murine epidermal barrier disruption to control water loss in mice in experiment 1; format: functional
# [2] = molecular target: T1, Lysosomal acid glucosylceramidase (Homo sapiens) (UniProt P04062); experiment: In vitro beta--Glucocerebrosidase (beta-GlcCer'ase) activity in cultured human keratinocytes; format: cell-based; set-up: reference not given here
# T1 sequence (whole entry): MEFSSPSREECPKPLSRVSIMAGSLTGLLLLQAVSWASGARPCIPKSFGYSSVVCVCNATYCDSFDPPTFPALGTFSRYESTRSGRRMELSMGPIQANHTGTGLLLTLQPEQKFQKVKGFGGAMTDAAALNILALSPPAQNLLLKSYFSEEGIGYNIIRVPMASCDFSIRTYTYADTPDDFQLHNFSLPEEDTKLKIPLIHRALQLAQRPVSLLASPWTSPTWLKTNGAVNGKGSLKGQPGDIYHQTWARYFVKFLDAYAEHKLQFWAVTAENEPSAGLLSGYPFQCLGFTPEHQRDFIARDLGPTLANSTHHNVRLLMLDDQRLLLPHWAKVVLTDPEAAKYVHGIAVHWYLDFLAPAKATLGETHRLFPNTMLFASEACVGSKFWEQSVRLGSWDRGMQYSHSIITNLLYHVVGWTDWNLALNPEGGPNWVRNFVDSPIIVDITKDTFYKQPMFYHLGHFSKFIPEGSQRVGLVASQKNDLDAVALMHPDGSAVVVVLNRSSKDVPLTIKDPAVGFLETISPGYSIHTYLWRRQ
# Mus musculus [3] = species on record: Mus musculus; experiment: […] effect on UVB-induced murine epidermal barrier disruption to control water loss in mice in experiment 2; format: functional
SMILES,Activity [2],TEWL (Mus musculus [1]),TEWL (Mus musculus [3])
"CCCCCCCCCCCCCCCCCC(=O)N[C@@H](CO[C@@H]1O[C@@H](CO)C(O)[C@H](O)[C@@H]1O)C(=O)NCCCCCC (single isomer, unassigned)",1.42,2.01,2.19
"CCCCCCCCCCCCCCCCCC(=O)N[C@@H](CO[C@@H]1O[C@@H](CO)C(O)[C@H](O)[C@@H]1O)C(=O)NCCCCCCCCCC (single isomer, unassigned)",1.2,–,–
"CCCCCCCCCCCCCCNC(=O)[C@H](CO[C@@H]1O[C@@H](CO)C(O)[C@H](O)[C@@H]1O)NC(=O)CCCCCCC (single isomer, unassigned)",0.87,–,–

# The next lines start with results.
Activity [2],SMILES,TEWL (Mus musculus [1]),TEWL (Mus musculus [3])
1.37,"CCCCCCCCCCCCCCCC(=O)N[C@@H](CO[C@@H]1O[C@@H](CO)C(O)[C@H](O)[C@@H]1O)C(=O)NCCCCCCCCCCCCCC (single isomer, unassigned)",–,–
1.24,"CCCCCCCCCCCCCCCCCC(=O)N[C@@H](CO[C@@H]1O[C@@H](CO)C(O)[C@H](O)[C@@H]1O)C(=O)NCCCCCCCCCCCCCC (single isomer, unassigned)",–,–
